According to patent US20250154554A1, “ANTIMICROBIAL SUSCEPTIBILITY” (priority 2022, published 2025):
Read-outs that look alike come from different tables or passages of the source.

Tests used:
[1] = system: Gram-negative bacteria (Enterobacterales, Pseudomonas, Acinetobacter); conditions: for RM R (strains resistant by reference method) / RM S (strains susceptible by reference method) / RM I (strains intermediate by reference method): total of 3 sites, blood cultures; for CLSI RM R / EUCAST RM R: number of strains resistant; for CLSI RM S / EUCAST RM S: number of strains susceptible; for CLSI RM I: number of strains I
Method: (§1) For Colistin (on gram-negative bacteria) and vancomycin (in the case of Staphylococcus), the method used to determine the antimicrobial susceptibility was broth microdilution [5]. […] Standard methodologies were performed from the same inoculum used to spike the blood cultures. Quality control of the reference methods was also performed according to the recommendations of EUCAST and CLSI.
(§2) All the strains were classified as S, I or R according the reference methods. MIC was determined for vancomycin and colistin. The presence of ESBL on Enterobacterales group I, together with the screening for ESBL on Enterobacterales group II, and the screening for AmpC and presence of carbapenemases according EUCAST protocol for detection of mechanisms of resistance were also performed.
(§3) Positive blood cultures were spiked in blood agar and colonies identified and submitted to antimicrobial susceptibility assay according reference disk diffusion method and/or to MIC values determined by microdilution. The results were analysed using the most recent EUCAST breakpoint tables and the M100 (29th ed.) breakpoint tables from CLSI.

[2] = system: Gram-positive bacteria (Staphylococcus spp, Enterococcus spp); assay: Reference method (RM): disk diffusion and/or broth microdilution, S/I/R classification, Gram-positive strains; type: cell-based; conditions: for CLSI RM R / EUCAST RM R: number of strains resistant; for CLSI RM S / EUCAST RM S: number of strains susceptible; for EUCAST RM I: number of strains I;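 on all read-outs here: susceptibility categories assigned with the latest EUCAST breakpoint tables or CLSI M100 29th edition breakpoints, with quality control of the reference methods following EUCAST and CLSI guidance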
Method: as §1, §2, §3

[3] = CLSI, FASTinov, Porto, spiked on blood cultures
[4] = CLSI, Hospital Ramon et Cajal, Madrid, patients' blood cultures
[5] = CLSI, Hospital S. João, Porto, patients' blood cultures
[6] = EUCAST, FASTinov, Porto, spiked on blood cultures
[7] = EUCAST, Hospital Ramon et Cajal, Madrid, patients' blood cultures
[8] = EUCAST, Hospital S. João, Porto, patients' blood cultures
[9] = CLSI, FASTinov, Porto, spiked blood cultures
[10] = CLSI, total of 3 sites, blood cultures
[11] = EUCAST, FASTinov, Porto, spiked blood cultures
[12] = EUCAST, total of 3 sites, blood cultures
[13] = CLSI, Hospital Ramon et Cajal, Madrid, patients blood cultures
[14] = EUCAST, Hospital Ramon et Cajal, Madrid, patients blood cultures

Compound: NCC[C@H](O)C(=O)N[C@@H]1C[C@H](N)[C@@H](O[C@H]2O[C@H](CN)[C@@H](O)[C@H](O)[C@H]2O)[C@H](O)[C@H]1O[C@H]1O[C@H](CO)[C@@H](O)[C@H](N)[C@H]1O [Amikacin]
- RM R (strains resistant by reference method) ([1]; CLSI): 27
- RM S (strains susceptible by reference method) ([1]; CLSI): 316
- RM R (strains resistant by reference method) ([1]; EUCAST): 30
- RM S (strains susceptible by reference method) ([1]; EUCAST): 313
- CLSI RM R [1, 3]: 25
- CLSI RM R [1, 4]: 1
- CLSI RM R [1, 5]: 1
- EUCAST RM R [1, 6]: 27
- EUCAST RM R [1, 7]: 1
- EUCAST RM R [1, 8]: 2
- CLSI RM S [1, 3]: 158
- CLSI RM S [1, 4]: 77
- CLSI RM S [1, 5]: 81
- EUCAST RM S [1, 6]: 156
- EUCAST RM S [1, 7]: 77
- EUCAST RM S [1, 8]: 80

Compound: CO[C@@]1(NC(=O)Cc2cccs2)C(=O)N2C(C(=O)O)=C(COC(N)=O)CS[C@@H]21 [Cefoxitin]
- RM R (strains resistant by reference method) [2, 9]: 17
- RM S (strains susceptible by reference method) [2, 9]: 26
- RM R (strains resistant by reference method) [2, 10]: 52
- RM S (strains susceptible by reference method) [2, 10]: 48
- RM R (strains resistant by reference method) [2, 11]: 17
- RM S (strains susceptible by reference method) [2, 11]: 26
- RM R (strains resistant by reference method) [2, 12]: 52
- RM S (strains susceptible by reference method) [2, 12]: 48
- CLSI RM R [2, 13]: 9
- CLSI RM R [2, 5]: 26
- EUCAST RM R [2, 14]: 9
- EUCAST RM R [2, 8]: 26
- CLSI RM S [2, 13]: 13
- CLSI RM S [2, 5]: 9
- EUCAST RM S [2, 14]: 13
- EUCAST RM S [2, 8]: 9

Compound: Cc1onc(-c2ccccc2)c1C(=O)N[C@@H]1C(=O)N2[C@@H]1SC(C)(C)[C@@H]2C(=O)O [Oxacillin]
- RM R (strains resistant by reference method) [2, 9]: 19
- RM S (strains susceptible by reference method) [2, 9]: 4
- RM R (strains resistant by reference method) [2, 10]: 74
- RM S (strains susceptible by reference method) [2, 10]: 14
- RM R (strains resistant by reference method) [2, 11]: 19
- RM S (strains susceptible by reference method) [2, 11]: 4
- RM R (strains resistant by reference method) [2, 12]: 74
- RM S (strains susceptible by reference method) [2, 12]: 14
- CLSI RM R [2, 13]: 19
- CLSI RM R [2, 5]: 36
- EUCAST RM R [2, 14]: 19
- EUCAST RM R [2, 8]: 36
- CLSI RM S [2, 13]: 5
- CLSI RM S [2, 5]: 5
- EUCAST RM S [2, 14]: 5
- EUCAST RM S [2, 8]: 5

Compound: Ceftazidime-avibactam
- RM R (strains resistant by reference method) ([1]; CLSI): 8
- RM S (strains susceptible by reference method) ([1]; CLSI): 307
- RM R (strains resistant by reference method) ([1]; EUCAST): 8
- RM S (strains susceptible by reference method) ([1]; EUCAST): 307
- CLSI RM R [1, 3]: 8
- CLSI RM R [1, 4]: 1
- EUCAST RM R [1, 6]: 8
- CLSI RM S [1, 3]: 145
- CLSI RM S [1, 4]: 81
- CLSI RM S [1, 5]: 81
- EUCAST RM S [1, 6]: 145
- EUCAST RM S [1, 7]: 81
- EUCAST RM S [1, 8]: 81

Compound: Amoxacillin-clavulanic acid
- RM I (strains intermediate by reference method) ([1]; CLSI): 14
- RM R (strains resistant by reference method) ([1]; CLSI): 107
- RM S (strains susceptible by reference method) ([1]; CLSI): 110
- RM R (strains resistant by reference method) ([1]; EUCAST): 125
- RM S (strains susceptible by reference method) ([1]; EUCAST): 106
- CLSI RM I [1, 3]: 5
- CLSI RM I [1, 4]: 9
- CLSI RM R [1, 3]: 56
- CLSI RM R [1, 4]: 19
- CLSI RM R [1, 5]: 32
- EUCAST RM R [1, 6]: 62
- EUCAST RM R [1, 7]: 30
- EUCAST RM R [1, 8]: 33
- CLSI RM S [1, 3]: 20
- CLSI RM S [1, 4]: 46
- CLSI RM S [1, 5]: 44
- EUCAST RM S [1, 6]: 19
- EUCAST RM S [1, 7]: 44
- EUCAST RM S [1, 8]: 43

Compound: Gentamicin [Gentamicin high level]
- RM R (strains resistant by reference method) [2, 9]: 12
- RM S (strains susceptible by reference method) [2, 9]: 35
- RM R (strains resistant by reference method) [2, 10]: 15
- RM S (strains susceptible by reference method) [2, 10]: 51
- RM R (strains resistant by reference method) [2, 11]: 12
- RM S (strains susceptible by reference method) [2, 11]: 35
- RM R (strains resistant by reference method) [2, 12]: 15
- RM S (strains susceptible by reference method) [2, 12]: 51
- CLSI RM R [2, 13]: 2
- CLSI RM R [2, 5]: 1
- EUCAST RM R [2, 14]: 2
- EUCAST RM R [2, 8]: 1
- CLSI RM S [2, 13]: 10
- CLSI RM S [2, 5]: 6
- EUCAST RM S [2, 14]: 10
- EUCAST RM S [2, 8]: 6

Compound: CO/N=C(\C(=O)N[C@@H]1C(=O)N2C(C(=O)O)=C(COC(C)=O)CS[C@H]12)c1csc(N)n1 [Cefotaxime]
- RM R (strains resistant by reference method) ([1]; CLSI): 75
- RM S (strains susceptible by reference method) ([1]; CLSI): 156
- RM R (strains resistant by reference method) ([1]; EUCAST): 75
- RM S (strains susceptible by reference method) ([1]; EUCAST): 156
- CLSI RM R [1, 3]: 54
- CLSI RM R [1, 4]: 13
- CLSI RM R [1, 5]: 8
- EUCAST RM R [1, 6]: 54
- EUCAST RM R [1, 7]: 13
- EUCAST RM R [1, 8]: 8
- CLSI RM S [1, 3]: 27
- CLSI RM S [1, 4]: 61
- CLSI RM S [1, 5]: 68
- EUCAST RM S [1, 6]: 27
- EUCAST RM S [1, 7]: 61
- EUCAST RM S [1, 8]: 68

Compound: CC1(C)S[C@@H]2[C@H](NC(=O)[C@H](N)c3ccccc3)C(=O)N2[C@H]1C(=O)O [Ampicillin]
- RM I (strains intermediate by reference method) ([1]; CLSI): 1
- RM R (strains resistant by reference method) ([1]; CLSI): 164
- RM S (strains susceptible by reference method) ([1]; CLSI): 66
- RM R (strains resistant by reference method) ([1]; EUCAST): 165
- RM S (strains susceptible by reference method) ([1]; EUCAST): 66
- CLSI RM I [1, 4]: 1
- CLSI RM R [1, 3]: 67
- CLSI RM R [1, 4]: 53
- CLSI RM R [1, 5]: 44
- EUCAST RM R [1, 6]: 67
- EUCAST RM R [1, 7]: 54
- EUCAST RM R [1, 8]: 44
- CLSI RM S [1, 3]: 14
- CLSI RM S [1, 4]: 20
- CLSI RM S [1, 5]: 32
- EUCAST RM S [1, 6]: 14
- EUCAST RM S [1, 7]: 20
- EUCAST RM S [1, 8]: 32
- RM R (strains resistant by reference method) [2, 9]: 23
- RM S (strains susceptible by reference method) [2, 9]: 42
- RM R (strains resistant by reference method) [2, 10]: 38
- RM S (strains susceptible by reference method) [2, 10]: 61
- RM R (strains resistant by reference method) [2, 11]: 23
- RM S (strains susceptible by reference method) [2, 11]: 42
- RM I (strains intermediate by reference method) [2, 12]: 2
- RM R (strains resistant by reference method) [2, 12]: 38
- RM S (strains susceptible by reference method) [2, 12]: 59
- EUCAST RM I [2, 14]: 2
- CLSI RM R [2, 13]: 10
- CLSI RM R [2, 5]: 5
- EUCAST RM R [2, 14]: 10
- EUCAST RM R [2, 8]: 5
- CLSI RM S [2, 13]: 12
- CLSI RM S [2, 5]: 7
- EUCAST RM S [2, 14]: 10
- EUCAST RM S [2, 8]: 7

Compound: C[C@@H](O)[C@H]1C(=O)N2C(C(=O)O)=C(SCCN=CN)C[C@H]12 [Imipenem]
- RM I (strains intermediate by reference method) [2, 11]: 39
- RM R (strains resistant by reference method) [2, 11]: 26
- EUCAST RM I [2, 14]: 12
- EUCAST RM R [2, 14]: 1

Compound: CC(=O)NC[C@H]1CN(c2ccc(N3CCOCC3)c(F)c2)C(=O)O1 [Linezolid]
- RM R (strains resistant by reference method) [2, 9]: 3
- RM S (strains susceptible by reference method) [2, 9]: 128
- RM R (strains resistant by reference method) [2, 10]: 5
- RM S (strains susceptible by reference method) [2, 10]: 298
- RM R (strains resistant by reference method) [2, 11]: 3
- RM S (strains susceptible by reference method) [2, 11]: 128
- RM R (strains resistant by reference method) [2, 12]: 5
- RM S (strains susceptible by reference method) [2, 12]: 298
- CLSI RM R [2, 5]: 2
- EUCAST RM R [2, 8]: 2
- CLSI RM S [2, 13]: 68
- CLSI RM S [2, 5]: 102
- EUCAST RM S [2, 14]: 68
- EUCAST RM S [2, 8]: 102
